“Also recorded” adds a separate entry of the source. Each block holds one compound with its values, some of them ahead of it.
Assays:
[1] = Complete blood count and serum iron parameters in wild-type mice with chelator treatment; type: in vivo; conditions: iron chelators for 3 weeks, n = 5, mean±SEM
Description: (§1) To test the use of these iron chelators in the setting of I/R, mice were pretreated for a week with these chelators and then subjected to I/R or sham operation. Chelation was continued for two weeks after the operation. […] To rule out any changes of serum iron hematopoiesis that can account for the cardiac functional difference, we performed complete blood counts and measured serum iron parameters in wild-type mice treated with iron chelators for 3 weeks.
(§2) Mice were treated with 80 mg/kg BPD (Sigma) in normal saline solution daily or 50 mg/kg DFO (Sigma) in normal saline every other day via intraperitoneal injection. The dose of BPD was chosen based on its ability to modulate cardiac mitochondrial iron, and the dose of DFO was chosen according to previously published studies (Ichikawa et al., 2014). BPD was prepared as a 400 mg/ml stock solution in ethanol and diluted 1:100 in normal saline to working concentration. DFO was prepared as a 250 mg/ml stock in water and diluted 1:100 in normal saline to working concentration.

H9c2 cardiomyoblasts = assay: Mitochondrial labile (chelatable) iron by RPA fluorescence in H9c2 cells; type: cell-based, rat
Description: (§3) H9c2 cardiomyoblasts were cultured in DMEM (ATCC) supplemented with 10% FBS (Thermo) and Penicillin/Streptomycin (Cellgro). HEK293T cells were cultured in MEM (Cellgro) supplemented with 10% FBS, sodium pyruvate (Cellgro) and Penicillin/Streptomycin. Unless otherwise specified, cells were treated with 200 μM of DFO or 100 μM of BPD for two hours when indicated prior to addition of 600 μM of H2O2 when indicated for 6 hours. RNA isolation and qRT-PCR RNA was isolated using RNA-STAT60 (Tel-Test) according to the manufacturer's instructions, and subjected to DNAse I (Ambion) digestion to remove residual DNA. Purified RNA was then reverse transcribed with Random Hexamer and Oligo dT(16) (Applied Biosystems) and amplified on a 7500 Fast Real-Time PCR system using Fast SYBR Green PCR Master Mix (Applied Biosystems). mRNA levels were calculated based on the difference of threshold Ct values in target gene and average Ct values of 18s, Actb, B2m, and Hprt in the same sample.
Tissue iron was measured colorimetrically by the formation of a complex with bathophenanthroline disulfonate or ferene-S as described previously (Ichikawa et al., 2012; Khechaduri et al., 2013). […] Quantitative measurement of labile iron was done according to previously described methods (Cabantchik et al., 1996; Petrat et al., 2002b). […]

H9c2 cells [2] = assay: Cytosolic and nuclear iron in H9c2 cells preloaded with radioactive 55Fe; type: cell-based, rat; conditions: H9c2 cells preloaded with 55Fe
Description: as §3
For nuclear and cytosolic iron, cells were loaded with 280 nM of ^55Fe-NTA. Excess ^55Fe-NTA was washed off with cold PBS containing 200 μM DFO prior to chelator treatment. The nuclear and cytosolic fractions were isolated using NE-PER Nuclear and Cytoplasmic Extraction Reagents (Pierce) and the radioactivity was quantified with liquid scintillation.

H9c2 cells [3] = assay: H2O2-induced cell death in H9c2 cells; type: cell-based, rat; conditions: chelator pretreatment, then H2O2
Description: as §3
For in vitro studies, cells were resuspended in 1× Annexin V buffer (BD) and then stained with Alexa Fluor 350 conjugated Annexin V (Life Technology) and propidium iodide (Sigma) according to the manufacturer's instructions and analyzed on a LSRII flow cytometer (BD).

wild-type mice = assay: Cardiac mitochondrial, cytosolic and nuclear non-heme iron in wild-type mice treated with iron chelator; type: in vivo; conditions: wild-type mice at baseline, one-week regimen, BPD 80 mg/kg per day, DFO 50 mg/kg every other day
Description: Mice were treated with 80 mg/kg BPD (Sigma) in normal saline solution daily or 50 mg/kg DFO (Sigma) in normal saline every other day via intraperitoneal injection. The dose of BPD was chosen based on its ability to modulate cardiac mitochondrial iron, and the dose of DFO was chosen according to previously published studies (Ichikawa et al., 2014). BPD was prepared as a 400 mg/ml stock solution in ethanol and diluted 1:100 in normal saline to working concentration. DFO was prepared as a 250 mg/ml stock in water and diluted 1:100 in normal saline to working concentration. […]
Tissue iron was measured colorimetrically by the formation of a complex with bathophenanthroline disulfonate or ferene-S as described previously (Ichikawa et al., 2012; Khechaduri et al., 2013). […] Quantitative measurement of labile iron was done according to previously described methods (Cabantchik et al., 1996; Petrat et al., 2002b). […] Fluorescence intensity was measured using Gemini XS plate reader (Molecular Device) with following excitation emission setting: ex/em 490 nm/520 nm for mitoTracker Green and calcein, 564 nm/601 nm for RPA, and 350 nm/461 nm for Hoechst 33342. After initial measurement, 2 mM of PIH (Abcam) was added to each well and fluorescence signal was measured again. […]

[4] = tested on: wild-type mice subjected to I/R; assay: Ischemia/reperfusion (I/R) injury in chelator-pretreated wild-type mice; type: in vivo
Description: as §1, §2
The procedure was performed as described previously (Wu et al., 2011).
(§4) Parasternal short- and long-axis views of the heart were obtained using a Vevo 770 high-resolution imaging system with a 30 MHz scan head. 2D and M-mode images were obtained and analyzed. Ejection fraction was calculated from M mode image using Teichholtz equation, and fractional shortening was directly calculated from end-systolic and end-diastolic chamber size from M-mode images.
At the time of tissue harvest, heart was excised and rinsed in phosphate buffered saline to remove excess blood on tissue and in ventricles. Hearts were then submerged into OTC compound and frozen in liquid nitrogen. For hearts with I/R injury, sections were collected 500 μm below suture line to capture the injured region. Sections were stained with hematoxylin and eosin for evaluation of general cardiac morphology and tissue organization. Masson Trichrome staining were used to visualize cardiac fibrosis. Fibrosis was quantified from low power microscope images by dividing the arc length of fibrotic scar to the circumference of left ventricle.
H9c2 cardiomyoblasts were cultured in DMEM (ATCC) supplemented with 10% FBS (Thermo) and Penicillin/Streptomycin (Cellgro). HEK293T cells were cultured in MEM (Cellgro) supplemented with 10% FBS, sodium pyruvate (Cellgro) and Penicillin/Streptomycin. […] Purified RNA was then reverse transcribed with Random Hexamer and Oligo dT(16) (Applied Biosystems) and amplified on a 7500 Fast Real-Time PCR system using Fast SYBR Green PCR Master Mix (Applied Biosystems). mRNA levels were calculated based on the difference of threshold Ct values in target gene and average Ct values of 18s, Actb, B2m, and Hprt in the same sample.

[5] = tested on: cardiac-specific ABCB8 knockout mice; assay: Spontaneous cardiomyopathy in cardiac-specific ABCB8 knockout mice; type: in vivo
Text: We next took a loss-of-function approach, and studied whether a decrease in mitochondrial iron in cardiac-specific ABCB8 knockout mice, a model of spontaneous cardiomyopathy with mitochondrial iron overload (Ichikawa et al., 2012), protects against cardiac tissue damage. […] Mitochondrial iron in ABCB8 flox/flox (LoxP sequence flanking exon one of both alleles of ABCB8) mice with or without the αMHC-MER-Cre-MER transgene was modulated with BPD or vehicle control for one week before the induction of ABCB8 deletion with tamoxifen. BPD treatment continued until four weeks after the completion of tamoxifen treatment, at which point mitochondrial iron and cardiac function were measured. The effectiveness of Cre-mediated gene excision was confirmed at the protein level (FIG. 15). […] These findings indicate that prevention of mitochondrial iron accumulation through a pharmacological approach delays the development of cardiomyopathy in an animal model of mitochondrial iron accumulation.
Cardiomyocyte-specific ABCB8 transgenic mice were generated as described previously (Ichikawa et al., 2014) and backcrossed for at least 8 generations. Mice with both alleles of ABCB8 floxed (ABCB8f/f) were crossed to α-MHC MER-Cre-MER mice, and the first generation is back-crossed with ABCB8f/f mice to generate ABCB8f/f mice with or without α-MHC MER-Cre-MER transgene. Tamoxifen-induced Cre translocation and deletion of ABCB8 in the heart was achieved using a previously described protocol (Ichikawa et al., 2012). All animal studies were approved by the Institutional Animal Care and Use Committee at Northwestern University and were performed in accordance with guidelines from the National Institutes of Health.
as §2, §4
Tissue iron was measured colorimetrically by the formation of a complex with bathophenanthroline disulfonate or ferene-S as described previously (Ichikawa et al., 2012; Khechaduri et al., 2013). For qualitative measurement of mitochondrial labile iron, cells were stained with Rhodamine B-[1,10-phenanthrolin-5-yl)-aminocarbonyl]benzyl ester (RPA) (Squarix) and mitoTracker Green (Invitrogen). Images were obtained on a Zeiss AxioObserver.Z1 microscope. Quantitative measurement of labile iron was done according to previously described methods (Cabantchik et al., 1996; Petrat et al., 2002b). Briefly, cells were stained with RPA and mitoTracker Green for mitochondrial labile iron measurement and calcein (Invitrogen) and Hoechst 33342 (Invitrogen) for cytosolic labile iron measurement. Fluorescence intensity was measured using Gemini XS plate reader (Molecular Device) with following excitation emission setting: ex/em 490 nm/520 nm for mitoTracker Green and calcein, 564 nm/601 nm for RPA, and 350 nm/461 nm for Hoechst 33342. After initial measurement, 2 mM of PIH (Abcam) was added to each well and fluorescence signal was measured again. […]

H9c2 cells [6] = assay: Mitochondrial ROS (mitoSox) in H9c2 cells after hydrogen peroxide treatment; type: cell-based, rat; conditions: chelator pretreatment
Description: as §3
Mitochondrial ROS levels in intact cells were quantified using MitoSox Red (Life Technologies). Briefly, cells were loaded with MitoSox to stain for mitochondrial ROS and Hoechst 33342 for nuclei counter stain. Images were obtained on a Zeiss AxioObserver.Z1 microscope and analyzed with ImageJ software (NIH). MitoSox signal in the nuclei was subtracted to exclude localization of the dye to the nuclei.

H9c2 cells [7] = assay: Mitochondrial membrane potential (TMRE) in H9c2 cells; type: cell-based, rat; conditions: H2O2
Description: as §3
Cells were stained with 5 nM of TMRE (Life Technology) and counter stained with Hoechst 33342. Images were obtained on a Zeiss AxioObserver.Z1 microscope and analyzed with ImageJ software (NIH).

[8] = tested on: mitochondrial aconitase, complex I, II and IV; assay: Mitochondrial enzyme and complex activities in H9c2 cells; type: cell-based, rat; conditions: chelator pre-treatment, then H2O2
Description: as §3
Mitochondria were isolated from cells as described above. Mitochondrial complex I, II and IV activity was measured as described previously (Spinazzi et al., 2012). Aconitase activity was measured using Aconitase Activity Microplate Assay Kit (Abcam). Citrate synthase activity was measured from the same sample using Citrate Synthase Activity Kit (BioVision) and was used to normalize the mitochondrial complex activity.

[9] = cited from earlier work

SMILES: c1ccc(-c2ccccn2)nc1 [BPD, 2,2′-bipyridyl]
- Hematocrit [1]: 47.53 ± 1.84%
- Hemoglobin [1]: 13.12 ± 0.30 g/dL
- Iron Saturation [1]: 15.25 ± 0.81 %
- MCH [1]: 12.38 ± 0.53 pg
- MCHC [1]: 26.34 ± 1.21 g/dL
- MCV [1]: 47.02 ± 0.36 fL
- Platelet [1]: 1007 ± 236.72 10^3/μL
- RBC [1]: 10.7 ± 0.62 10^6/μL
- RDW [1]: 17 ± 0.41%
- Serum Iron [1]: 44.40 ± 2.24 µg/dL
- Total Iron Binding Capacity [1]: 291.42 ± 4.63 µg/dL
- Unsaturated Iron Binding Capacity [1]: 247.02 ± 4.93 µg/dL
- WBC [1]: 5.70 ± 0.40 10^3/μL
- increase in mitochondrial labile iron after H2O2 treatment (H9c2 cardiomyoblasts; chelator pretreatment, then 600 μM H2O2 for 6 hours): attenuated
- chelatable / labile mitochondrial iron (H9c2 cardiomyoblasts; two-hour pretreatment, 200 μM DFO or 100 μM BPD, no H2O2): decreased mitochondrial labile iron; also recorded: significantly reduced chelatable mitochondrial iron; also recorded: significantly lowered chelatable mitochondrial iron
- cytosolic iron (H9c2 cells [2]): significant decreases
- nuclear iron (H9c2 cells [2]): significant decreases
- H2O2-induced cell death (H9c2 cells [3]): significantly reversed H2O2-induced cell death; also recorded: protected cells against H2O2 induced cell death
- cardiac mitochondrial iron (wild-type mice): decreased cardiac mitochondrial iron; also recorded: decreased baseline mitochondrial iron; also recorded: lower mitochondrial iron
- cardiac remodeling (tissue fibrosis) after I/R ([4]; mice pretreated for a week, H&E and Masson Trichrome staining): less cardiac remodeling compared to either vehicle- or DFO-treated mice
- cardiac function after I/R / protection against I/R injury ([4]; mice pretreated for a week, chelation continued for two weeks after operation): significantly preserved cardiac function after I/R; also recorded: protected mice against I/R injury
- expression of Nppa, Nppb and Myh7 after I/R ([4]; mice pretreated for a week, subjected to I/R): attenuated the expression of Nppa, Nppb and Myh7
- ROS production after I/R ([4]; mice pretreated with chelator): reduced ROS production
- cardiac function in ABCB8 knockout mice ([5]; BPD from 1 week before deletion until 6 weeks after deletion, read at 6 weeks after deletion): preserved cardiac function
- mitochondrial iron accumulation in ABCB8 KO mice ([5]; Cre+ (KO) mice, BPD from one week before tamoxifen until four weeks after tamoxifen): prevented the development of iron accumulation
- mitochondrial iron in Cre- (WT) mice ([5]; Cre- (WT) mice, same BPD regimen): resulted in a decrease in mitochondrial iron
- cardiotoxicity of the treatment itself ([5]; WT mice, same BPD regimen): not cardiotoxic
- lipid peroxidation products in ABCB8 KO mice ([5]; chelator-treated ABCB8 KO mice): attenuated the increase
- cardiac function (ejection fraction, fractional shortening) in ABCB8 KO mice ([5]; four weeks after completion of tamoxifen treatment): preserved cardiac function
- expression of Nppa, Nppb and Myh7 in ABCB8 KO mice ([5]; four weeks after tamoxifen): attenuated expression of Nppa, Nppb and Myh7
- increase in mitochondrial ROS after hydrogen peroxide treatment (mitoSox) (H9c2 cells [6]): significantly attenuated
- mitochondrial membrane potential after oxidative stress (H9c2 cells [7]): prevented the significant decrease of mitochondrial membrane potential after oxidative stress
- activities of mitochondrial aconitase, complex I, II and IV after H2O2 treatment [8]: protected the activities of mitochondrial aconitase, complex I, II and IV after H2O2 treatment
- log P [9]: 1.5

- Hematocrit [1]: 47.02 ± 2.25%
- Hemoglobin [1]: 12.96 ± 0.53 g/dL
- MCH [1]: 13.28 ± 0.12 pg
- MCHC [1]: 27.62 ± 0.32 g/dL
- MCV [1]: 48.1 ± 0.31 fL
- Platelet [1]: 711.6 ± 139.86 10^3/μL
- RBC [1]: 9.77 ± 0.43 10^6/μL
- RDW [1]: 17 ± 0.32%
- WBC [1]: 6.62 ± 0.85 10^3/μL
SMILES: CC(=O)N(O)CCCCCNC(=O)CCC(=O)N(O)CCCCCNC(=O)CCC(=O)N(O)CCCCCN [DFO, deferoxamine]
- Iron Saturation [1]: 18.66 ± 1.68 %
- Serum Iron [1]: 53.37 ± 6.63 µg/dL
- Total Iron Binding Capacity [1]: 281.21 ± 12.76 µg/dL
- Unsaturated Iron Binding Capacity [1]: 227.85 ± 7.71 µg/dL
- log P [9]: −0.614
